Results reported in ChEMBL document CHEMBL2169851, “Imidazopyridazinones as novel PDE7 inhibitors: SAR and in vivo studies in Parkinson's disease model” (Bioorg Med Chem Lett, 2012).

Target: High affinity 3',5'-cyclic-AMP phosphodiesterase 7A (Homo sapiens, UniProt Q13946)
Assay: Inhibition of cloned human recombinant PDE7A assessed as [3H]cAMP hydrolysis by radiometric assay

Chain of High affinity 3',5'-cyclic-AMP phosphodiesterase 7A (Q13946 whole entry): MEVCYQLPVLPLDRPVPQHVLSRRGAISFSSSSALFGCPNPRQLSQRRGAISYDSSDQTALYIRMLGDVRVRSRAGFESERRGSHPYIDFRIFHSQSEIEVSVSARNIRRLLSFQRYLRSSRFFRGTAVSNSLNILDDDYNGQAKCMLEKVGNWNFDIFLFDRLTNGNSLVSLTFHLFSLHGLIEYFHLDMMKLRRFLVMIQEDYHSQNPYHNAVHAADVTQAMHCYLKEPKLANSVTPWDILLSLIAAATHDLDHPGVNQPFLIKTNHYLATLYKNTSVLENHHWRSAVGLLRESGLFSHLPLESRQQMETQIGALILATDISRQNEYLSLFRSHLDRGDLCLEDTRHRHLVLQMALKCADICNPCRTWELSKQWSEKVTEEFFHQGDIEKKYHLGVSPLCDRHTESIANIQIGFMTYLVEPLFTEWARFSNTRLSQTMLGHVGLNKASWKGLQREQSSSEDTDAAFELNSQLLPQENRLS

Row | SMILES | IC50 [nM]
1 | COc1cc(N2CCC(O)C2)ccc1-c1nc2c(C)nn(C3CCCCC3)c(=O)c2[nH]1 (configuration not stated) | 71
2 | COc1cc(N2CCNCC2)ccc1-c1nc2c(C)nn(C3CCCCC3)c(=O)c2[nH]1 | 104
3 | COc1cc(N2CCCN(C(C)=O)CC2)ccc1-c1nc2c(C)nn(C3CCCCC3)c(=O)c2[nH]1 | 32
4 | COc1cc(N2CC(N)C2)ccc1-c1nc2c(C)nn(C3CCCCC3)c(=O)c2[nH]1 | 73
5 | COc1cc(-c2cn[nH]c2)ccc1-c1nc2c(C)nn(C3CCCCC3)c(=O)c2[nH]1 | 45
6 | COc1cc(N2CCC(O)CC2)ccc1-c1nc2c(C)nn(C3CCCCC3)c(=O)c2[nH]1 | 81
7 | COc1cc(N2CC(O)C2)ccc1-c1nc2c(C)nn(C3CCCCC3)c(=O)c2[nH]1 | 53
